From ChEMBL document CHEMBL3232935, “Design, synthesis and evaluation of 1,2,3-triazole-adamantylacetamide hybrids as potent inhibitors of Mycobacterium tuberculosis” (Bioorg Med Chem Lett, 2014)
≈ marks a conversion by molar mass, not a printed value.

What was measured:
[1] = Lipophilicity, log P of the compound; assay type: physicochemical; details: octanol/water
[2] = test system: Mycobacterium tuberculosis; experiment: microbe, parasite or virus in culture; assay type: functional; details: H37Rv ATCC 27294, 672 h
Description: Antitubercular activity against Mycobacterium tuberculosis H37Rv ATCC 27294 after 28 days by agar dilution method

[3] = Cytotoxicity against HEK293T cells at 50 ug/ml after 72 hrs by MTT assay; assay type: cell-based, HEK-293T; details: human, read-out: INH
[4] = Selectivity index, ratio of cytotoxicity against HEK293T cells to antitubercular activity against Mycobacterium tuberculosis H37Rv ATCC 27294; assay type: toxicity, cell-based, HEK-293T; details: human, read-out: Selectivity Index

## CCCCc1cn(CC(=O)NC23CC4CC(CC(C4)C2)C3)nn1
[1]
  logP: 2.68
[2]
  MIC: 50 µg/mL (≈ 158 µM)

## CCCCCc1cn(CC(=O)NC23CC4CC(CC(C4)C2)C3)nn1
[1]
  logP: 3.1
[2]
  MIC: 50 µg/mL (≈ 151 µM)

## CCCCCCc1cn(CC(=O)NC23CC4CC(CC(C4)C2)C3)nn1
[1]
  logP: 3.52
[2]
  MIC: 50 µg/mL (≈ 145 µM)

## O=C(Cn1cc(CCCO)nn1)NC12CC3CC(CC(C3)C1)C2
[3]
  cytotoxicity at 72 h, 50 ug/ml: 20.7%
[1]
  logP: 0.61
[4]
  selectivity ratio: > 15
[2]
  MIC: 6.25 µg/mL (≈ 19.6 µM)

## O=C(Cn1cc(CCc2ccccc2)nn1)NC12CC3CC(CC(C3)C1)C2
[1]
  logP: 3.03
[2]
  MIC: 50 µg/mL (≈ 137 µM)

## O=C(Cn1cc(C2(O)CCCC2)nn1)NC12CC3CC(CC(C3)C1)C2
[1]
  logP: 1.51
[2]
  MIC: 50 µg/mL (≈ 145 µM)

## O=C(Cn1cc(C2(O)CCCCC2)nn1)NC12CC3CC(CC(C3)C1)C2
[3]
  cytotoxicity at 72 h, 50 ug/ml: 17.5%
[1]
  logP: 1.93
[4]
  selectivity ratio: > 15
[2]
  MIC: 6.25 µg/mL (≈ 17.4 µM)

## O=C(Cn1cc(-c2ccccc2)nn1)NC12CC3CC(CC(C3)C1)C2
[1]
  logP: 2.75
[2]
  MIC: 50 µg/mL (≈ 149 µM)

## CC(C)(C)c1ccc(-c2cn(CC(=O)NC34CC5CC(CC(C5)C3)C4)nn2)cc1
[1]
  logP: 4.46
[2]
  MIC: 50 µg/mL (≈ 127 µM)

## COc1cccc(-c2cn(CC(=O)NC34CC5CC(CC(C5)C3)C4)nn2)c1
[1]
  logP: 2.63
[2]
  MIC: 25 µg/mL (≈ 68.2 µM)

## COc1ccc(-c2cn(CC(=O)NC34CC5CC(CC(C5)C3)C4)nn2)c(C)c1
[1]
  logP: 3.12
[2]
  MIC: 50 µg/mL (≈ 131 µM)

## O=C(Cn1cc(-c2ccc([N+](=O)[O-])cc2)nn1)NC12CC3CC(CC(C3)C1)C2
[2]
  MIC: 50 µg/mL (≈ 131 µM)

## O=C(Cn1cc(-c2ccc(F)cc2F)nn1)NC12CC3CC(CC(C3)C1)C2
[1]
  logP: 3.07
[2]
  MIC: 50 µg/mL (≈ 134 µM)

## O=C(Cn1cc(-c2ccc(F)c(F)c2)nn1)NC12CC3CC(CC(C3)C1)C2
[1]
  logP: 3.07
[2]
  MIC: 50 µg/mL (≈ 134 µM)

## O=C(Cn1cc(-c2ccc(C(F)(F)F)cc2)nn1)NC12CC3CC(CC(C3)C1)C2
[1]
  logP: 3.68
[2]
  MIC: 50 µg/mL (≈ 124 µM)

## O=C(Cn1cc(-c2ccc(Cl)c(Cl)c2)nn1)NC12CC3CC(CC(C3)C1)C2
[1]
  logP: 3.87
[2]
  MIC: 50 µg/mL (≈ 123 µM)

## CCCCCc1ccc(-c2cn(CC(=O)NC34CC5CC(CC(C5)C3)C4)nn2)cc1
[3]
  cytotoxicity at 72 h, 50 ug/ml: 18.7%
[1]
  logP: 4.91
[4]
  selectivity ratio: > 15
[2]
  MIC: 6.25 µg/mL (≈ 15.4 µM)

## CC(=O)c1ccc(C)cc1OCc1cn(CC(=O)NC23CC4CC(CC(C4)C2)C3)nn1
[1]
  logP: 2.55
[2]
  MIC: 50 µg/mL (≈ 118 µM)

## COc1ccc2cc(-c3cn(CC(=O)NC45CC6CC(CC(C6)C4)C5)nn3)ccc2c1
[1]
  logP: 3.63
[2]
  MIC: 50 µg/mL (≈ 120 µM)

## O=C(Cn1cc(-c2cc3ccccc3c3ccccc23)nn1)NC12CC3CC(CC(C3)C1)C2
[3]
  cytotoxicity at 72 h, 50 ug/ml: 20.1%
[1]
  logP: 4.75
[4]
  selectivity ratio: > 15
[2]
  MIC: 3.12 µg/mL (≈ 7.15 µM)

## O=C(Cn1cc(-c2ccsc2)nn1)NC12CC3CC(CC(C3)C1)C2
[1]
  logP: 2.74
[2]
  MIC: 50 µg/mL (≈ 146 µM)

## CC[C@@H](CO)NCCN[C@@H](CC)CO [ETHAMBUTOL]
[2]
  MIC: 3.13 µg/mL (≈ 15.3 µM)

## NNC(=O)c1ccncc1 [ISONIAZID]
[2]
  MIC: 0.1 µg/mL (≈ 0.729 µM)

## NC(=O)c1cnccn1 [PYRAZINAMIDE]
[2]
  MIC: 50 µg/mL (≈ 406 µM)
